Consider 1 compound from US20120190690A1, “E[…] THE TREATMENT OF WEIGHT DISORDERS” (MERZ PHARMA GmbH & CO. KGaA, priority 2009, published 2012).

Molecules are shown by their SMILES. Entries after “also recorded” stand apart in the source; their conditions may differ.

One data set concerns 5-HT1a receptor. To be noted: Schipper et al. 1990; cited from earlier work.
A further data set concerns Sprague-Dawley rats. The experiment in a line: Effect of eltoprazine on weight gain and food intake of rats. The data set is classed as in vivo, rat. To be noted: vs vehicle. The procedure: Experimentally naive adult male Sprague-Dawley rats (250-300 g; Janvier, France) were housed in groups of four per cage. Colony room temperature and humidity were maintained respectively at 20±1° C. and 60±3%. Food and water were available ad libitum and the animals were kept under an alternating 12 h/12 h day-night cycle (lights on at 07.00) for at least 6 days before the experiments were started. All experiments were conducted during the light period of the day-night cycle.
(§1) Eltoprazine hydrochloride was dissolved in sterile water. Animals were treated for 2 weeks using Alzet osmotic pumps (2ML2) implanted under the skin on the back delivering constantly eltoprazine solution or using b.i.d. s.c. Treatment. During the treatment, the rats were kept in single cages.
(§2) Group 1: vehicle (osmotic pump; saline) Group 2: eltoprazine 8 mg/kg/day (osmotic pump; in distilled water) Group 3: vehicle (2 daily injections—9 am & 3 pm—s.c.; in distilled water) Group 4: eltoprazine 1 mg/kg (2 daily injections—9 am & 3 pm—s.c.; in distilled water)
Groups 3 and 4 were NOT injected at the weekend, and the weight and food intake were not recorded at the weekend.
Weight of animals and food intake were measured daily for two weeks (with exception of weekends).

For data set [1], the target named is T1, human serotonin 5-HT1b receptor (Homo sapiens, UniProt P28222).
T1 construct: expressed in transfected cells; host or cells: CHO-K1
The experiment in a line: GTPγS assay, recombinant CHO-K1 membranes, agonist testing. The data set is classed as biochemical. To be noted: human recombinant cell line; FIG. 1. As to the method:
(§3) Eltoprazine was tested for activity on the human serotonin 5-HT1a and 5-HT1b receptors using a GTPγS assay. Recombinant membranes obtained from CHO-K1 cells expressing either the 5-HT1a or 5-HT1b receptors were mixed with GDP (volume:volume) and incubated for at least 15 min on ice. In parallel, GTPγ[35S] was mixed with the beads (volume:volume) just before starting the reaction. The following reagents were successively added in the wells of an Optiplate (Perkin Elmer): 50 μl of test compound, 20 μl of the membranes:GDP mix, 10 μl of assay buffer (for agonist testing) and 20 μl of the GTPγ[35S]:beads mix. The plates were covered with a top seal, shaken on an orbital shaker for 2 min, and then incubated for 1 h at room temperature. Then the plates were centrifuged for 10 min at 2000 rpm, incubated at room temperature 1 h and counted for 1 min/well with a PerkinElmer TopCount reader.

The target in data set [2] is T2, human serotonin 5-HT1a receptor (Homo sapiens, UniProt P08908).
T2 construct: expressed in transfected cells; host or cells: CHO-K1
T2 sequence (P08908 1-422): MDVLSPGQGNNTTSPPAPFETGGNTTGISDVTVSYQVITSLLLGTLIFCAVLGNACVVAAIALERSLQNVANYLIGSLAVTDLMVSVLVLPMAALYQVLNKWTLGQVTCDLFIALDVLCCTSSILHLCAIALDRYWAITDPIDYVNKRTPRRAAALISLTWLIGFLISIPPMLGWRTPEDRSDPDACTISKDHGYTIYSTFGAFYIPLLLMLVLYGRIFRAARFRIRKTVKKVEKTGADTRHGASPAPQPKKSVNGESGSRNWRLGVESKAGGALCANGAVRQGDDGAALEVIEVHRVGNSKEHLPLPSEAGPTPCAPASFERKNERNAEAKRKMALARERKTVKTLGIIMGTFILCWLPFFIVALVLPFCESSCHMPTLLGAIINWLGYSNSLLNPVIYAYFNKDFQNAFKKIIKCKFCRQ
Described as above. The data set is classed as biochemical. The settings on record: human recombinant cell line; FIG. 1. As to the method:
as §3

Another data set has as its system 5-HT1b receptor. The settings on record: Schipper et al. 1990; cited from earlier work.
The subject of data set [3] is 5-HT2c (initially designated 5-HT1c). The settings on record: Schipper et al. 1990; cited from earlier work.
The target in data set [4] is T3, 5-HT2c non-edited (ne) recombinant receptor (Homo sapiens, UniProt P28335).
T3 construct: expressed in transfected cells
T3 sequence (P28335 33-458): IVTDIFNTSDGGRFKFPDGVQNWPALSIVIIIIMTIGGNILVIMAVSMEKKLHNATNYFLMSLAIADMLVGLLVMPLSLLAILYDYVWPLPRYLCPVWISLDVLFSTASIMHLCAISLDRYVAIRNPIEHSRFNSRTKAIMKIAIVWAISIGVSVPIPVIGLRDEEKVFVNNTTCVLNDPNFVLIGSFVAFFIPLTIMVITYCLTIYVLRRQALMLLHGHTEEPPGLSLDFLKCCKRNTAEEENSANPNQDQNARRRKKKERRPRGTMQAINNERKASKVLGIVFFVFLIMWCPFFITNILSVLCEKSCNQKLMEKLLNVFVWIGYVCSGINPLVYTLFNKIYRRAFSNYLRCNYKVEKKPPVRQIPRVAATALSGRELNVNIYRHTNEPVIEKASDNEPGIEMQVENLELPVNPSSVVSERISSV
The data set can be described thus: Aequorin cell line functional assay, agonist testing. The data set is classed as cell-based. To be noted: FIG. 1. The procedure:
(§4) Aequorin cell lines expressing the 5-HT2a, 5-HT2b and 5-HT2c non-edited (ne) recombinant receptors were used to evaluate the functional activity of eltoprazine. Aequorin cells grown 18 h prior to the test in media without antibiotics were detached by gentle flushing with PBS-EDTA (5 mM EDTA), recovered by centrifugation and resuspended in “assay buffer” (DMEM/HAM's F12 with HEPES+0.1% BSA protease free). Cells were incubated at room temperature for at least 4 h with Coelenterazine h (Molecular Probes). The reference agonist used were 5-HT and α-methyl-5-HT. For agonist testing, 50 μl of cell suspension were injected on 50 μl of test compound or reference agonist plated in a 96-well plate. The resulting emission of light was recorded using the Hamamatsu Functional Drug Screening System 6000 (FDSS 6000).

Data set [5] deals with T4, 5-HT2a recombinant receptor (Homo sapiens, UniProt P28223).
T4 construct: expressed in transfected cells
The data set is described as above. Format: cell-based. To be noted: FIG. 1. The procedure:
as §4

For data set [6], the system named is 6-OHDA-lesioned rat model of Parkinson's disease. The experiment in a line: Turning behaviour induced by high dose of L-DOPA in 6-OHDA-lesioned rats. To be noted: eltoprazine 0.3, 1.25 and 5 mg/kg 30 min before test; 180 min rotometer; FIG. 3. The data set is classed as in vivo. As to the method: (§5) Male Sprague Dawley rats (Elevage Janvier, Le Genest Saint Isle, France) weighing between 220 and 250 g at the beginning of the study are used in these experiments. They are housed under a 12 h light/dark cycle with free access to standard pelleted food and tap water. Animal treatment and experimental procedures are approved by local ethical committees (Regierungspräsidium Darmstadt; Germany).
(§6) Dopamine-denervating lesions are performed on rats anaesthetized with a 5:1 mixture of ketamine and xylazine (1 ml/kg, i.p.). […] The animals' turning behaviour is recorded in an automated rotometer (TSE Rotameter System, TSE-Systems GmbH, Bad Homburg, Germany) over a 90 min period after the intraperitoneal (i.p.) injection of 2.5 mg/kg dexamphetamine sulphate dissolved in saline. […]
In order to evaluate the effect of eltoprazine on parkinsonian symptoms and its interaction with L-DOPA, rotational behaviour is evaluated. The numbers of ipsilateral and contralateral turns are recorded in an automated rotometer (TSE Rotameter System, TSE-Systems GmbH, Bad Homburg, Germany) over a period of 180 min. […]

Data set [7] shares this test system. The experiment in a line: L-DOPA induced dyskinesia (AIM scores) in unilaterally 6-OHDA-lesioned rats. The data set is classed as in vivo. The settings on record: eltoprazine hydrochloride 0.08, 0.3, 1.25 and 5 mg/kg s.c. 30 min before test; after 21 days L-DOPA 6 mg/kg + benserazide 15 mg/kg i.p.; FIG. 2. The procedure:
as §5, §6
In order to evaluate the severity of LID, AIMs are recorded every second day as described by Cenci et al. (1998). […] Each rat is scored on a severity scale from 0 to 4 based on its frequency and persistence (1=occasional; 2=frequent; 3=continuous but interrupted by sensory distraction; 4=continuous, severe and not interrupted by sensory distraction). […]

A short description of data set [8]: Plasma levels in the rat weight study. The data set is classed as in vivo. The settings on record: N=8. The procedure:
as §1, §2

The subject of a further data set is patients. To be noted: clinical trials in aggressive behaviour (de Koning et al. 1994); cited from earlier work.

T1 sequence (P28222 whole entry): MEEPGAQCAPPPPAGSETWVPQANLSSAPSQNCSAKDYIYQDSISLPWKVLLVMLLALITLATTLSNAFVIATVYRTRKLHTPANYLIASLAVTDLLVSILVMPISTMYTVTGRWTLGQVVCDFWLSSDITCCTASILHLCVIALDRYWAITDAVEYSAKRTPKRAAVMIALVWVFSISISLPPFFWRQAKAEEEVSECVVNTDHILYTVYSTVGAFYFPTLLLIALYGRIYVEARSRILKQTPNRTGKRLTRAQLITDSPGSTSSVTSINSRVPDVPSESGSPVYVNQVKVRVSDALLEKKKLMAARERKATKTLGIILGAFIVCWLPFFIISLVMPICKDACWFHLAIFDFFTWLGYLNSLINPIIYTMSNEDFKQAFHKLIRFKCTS
T4 sequence (P28223 whole entry): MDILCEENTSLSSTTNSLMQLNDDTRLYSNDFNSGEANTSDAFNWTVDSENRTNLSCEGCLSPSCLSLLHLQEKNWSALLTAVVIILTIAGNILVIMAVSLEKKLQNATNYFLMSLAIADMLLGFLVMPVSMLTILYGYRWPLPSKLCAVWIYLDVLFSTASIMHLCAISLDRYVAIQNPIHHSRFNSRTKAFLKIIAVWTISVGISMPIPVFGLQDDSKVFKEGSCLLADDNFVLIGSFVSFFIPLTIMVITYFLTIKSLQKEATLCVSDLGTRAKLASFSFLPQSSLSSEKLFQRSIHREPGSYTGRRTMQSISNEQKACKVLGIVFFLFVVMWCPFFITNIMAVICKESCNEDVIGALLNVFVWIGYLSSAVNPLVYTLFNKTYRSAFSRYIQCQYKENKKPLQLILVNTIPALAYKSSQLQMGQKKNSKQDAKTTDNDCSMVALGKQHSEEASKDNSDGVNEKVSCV

Turning to `c1cc2c(c(N3CCNCC3)c1)OCCO2` [eltoprazine, 1-(2,3-dihydro-1,4-benzodioxin-8-yl)piperazine], the “pharmacological action on 5-HT1a receptor” value with 5-HT1a receptor is “agonistic effect”. Further, the weight gain entry was “delay in weight gain; also recorded: significant effect of treatment” in the data set with Sprague-Dawley rats (1 mg/kg s.c. b.i.d. injections, 2 weeks (not at weekends), FIG. 5A) and “delay in weight gain; also recorded: significant effect of treatment” in the data set with Sprague-Dawley rats (osmotic minipump 8 mg/kg/day, 2 weeks, FIG. 4A). In addition, the food intake result was “reduced food intake; also recorded: significant effect of treatment” in the data set on Sprague-Dawley rats (1 mg/kg s.c. b.i.d. injections, 2 weeks (not at weekends), FIG. 5B) and “reduced food intake; also recorded: significant effect of treatment” with Sprague-Dawley rats (osmotic minipump 8 mg/kg/day, 2 weeks, FIG. 4B). In addition, the “functional activity at 5-HT1b receptor” value in data set [1] is recorded as “partial agonistic action”. Further, the “functional activity at 5-HT1a receptor” value in data set [2] is listed as “partial agonistic action”. Further, in the data set on 5-HT1b receptor, the “pharmacological action on 5-HT1b receptor” value is recorded as “agonistic effect”. The “effect on 5-HT2c” value in [3] is “antagonistic”. The “functional activity at 5-HT2c receptor” value in [4] is “full agonist”. For the same compound, in data set [5], the “functional activity at 5-HT2a receptor” value is given as “full agonist”. Moreover, the “effect on turning behaviour induced by L-DOPA (antiparkinsonian effect of L-DOPA)” value in data set [6] was “does not interfere with the antiparkinsonian effect of L-DOPA”. Moreover, the “effect on AIM scores” value in data set [7] is listed as “significantly reverses, in a dose-dependent manner”. Also, the values for the plasma levels result in data set [8] (1 mg/kg s.c. b.i.d. injections) and in data set [8] (osmotic minipump 8 mg/kg/day) were “approx. 55 ng/ml” and “approx. 110 ng/ml”, respectively. The “plasma levels (range)” value is 48 to 65 ng/mL in data set [8] (1 mg/kg s.c. b.i.d. injections) and 86 to 143 ng/mL in data set [8] (osmotic minipump 8 mg/kg/day). Also, in the data set with patients, the clinical safety result is on record as “clinically safe”.
